Measured values reported in patent US20040102454A1, “Phenylahistin and the phenylahistin analogs, a new class of anti-tumor compounds” (priority 1998, published 2004).
≈ marks a conversion by molar mass, not a printed value.

Legend:
C. albicans 90028 = assay: Antifungal susceptibility testing, broth dilution (NCCLS M38-A); format: cell-based, Candida albicans; settings: Candida albicans; C. albicans 90028; 80% reduction in turbidity; read-out: MIC
Procedure: (§1) Antifungal susceptibility testing was accomplished according to the methods outlined in the National Committee for Clinical Laboratory Standards, M38-A “Reference Method for Broth Dilution Antifungal Susceptibility Testing of Conidium-Forming Filamentous Fungi; Approved Standard.” This includes testing in RPMI-1640 with glutamine and without bicarbonate, an inoculum size of 0.4-5×10^4, and incubation at 30 or 35° C. for 48 hours. […] Drug concentrations were 0.03-16 μg/ml for the investigational compounds, 0.015-8 μg/ml for itraconazole and griseofulvin.
(§2) The minimum lethal concentration (MLC) was determined by plating […] from the MIC concentration and each concentration above the MIC. […] When a MIC was obtained, a minimum fungicidal concentration (MFC) was determined to assess the fungistatic/fungicidal nature of the compound. […] The compound is scored as fungistatic if the cells are able to resume growth and fungicidal if no regrowth is possible because the compound had killed the organisms.

C. albicans 10231 = assay: as above; format: cell-based, Candida albicans; settings: Candida albicans; C. albicans 10231; 80% reduction in turbidity; read-out: MIC
Procedure: as §1, §2

C. glabrata = assay: as above; format: cell-based, Candida glabrata; settings: Nakaseomyces glabratus; C. glabrata; 80% reduction in turbidity; read-out: MIC
Procedure: as §1, §2

Microtubule protein = assay: Electron microscopy of microtubule protein polymerization; format: biochemical, bovine; settings: 100 μM, 37° C. for 20 min
Procedure: Microtubule protein (1.5 mg/ml) was polymerized at 37° C. for 20 min in the presence of 100 μM (−)-PLH or vehicle (DMSO). A portion of each sample was diluted 5-fold with 1% glutaraldehyde in the microtubule assembly buffer. Samples were then placed on formvar- and carbon-coated grids, stained with 2% uranyl acetate, and examined using a JEOLJEM-1200 EXII electron microscope JEOL (Tokyo, Japan).

[1] = system: phosphocellulose-purified tubulin; assay: Polymerization of purified tubulin (turbidity); format: biochemical, bovine
Procedure: Microtubule protein was prepared from bovine brain tissue by two cycles of assembly and disassembly according to the method of Tiwari, S. C. et al. Anal. Biochem, (1993), 215, 96-103. Tubulin was purified from microtubule protein by phosphocellulose chromatography see Algaier, J. et al. Biochim. Biophys. Acta, (1988), 954, 235-43, and tubulin purity was evaluated by polyacrylamide gel electrophoresis, as in Laemmli, U.K., Nature, (1970), […], 680-85. […] Protein concentrations were determined using the Coomassie® Protein Assay Reagent from Pierce (Rockford, Ill.).
Polymerization of microtubule protein was monitored by an increase in turbidity at 37° C. in microtubule assembly buffer containing 100 mM MES, 0.5 mM MgCl2, 1 mM EGTA and 1 mM GTP. See Johnson, K. A. et al., J. Mol. Biol., (1977), 117, 1-31. Polymerization of purified tubulin was measured using the same method except the microtubule assembly buffer contained 4 M glycerol. See Lee, J. C. et al., Biochemistry, (1975), 14, 5183-87. Microtubule protein and tubulin polymerization was initiated by a temperature shift from 0° C. to 37° C. and turbidity was measured on a DU-20 thermocontrolled spectrophotometer from Beckman (Fullerton, Calif.) at 360 nm. Drugs were dissolved in dimethyl sulfoxide (DMSO), which was used in all experiments at a final concentration of 2% (v/v).

[2] = system: P388 murine leukemia cells; assay: Cytotoxic effects of the phenylahistin enantiomers (Example 8); format: cell-based; settings: Mus musculus, (−) 92.2% e.e., (+) 97.8% e.e.
From the text: The cytotoxic effects of the enantiomers of phenylahistin on P388 murine leukemia cells were examined. […] Judging from the content of (−)-phenylahistin in (+)-phenylahistin, (+)-phenylahistin was considered to have relatively low cytotoxicity to P388 cells.

[3] = system: Microtubule protein from bovine brain; assay: Microtubule protein polymerization assay (turbidity); format: biochemical
38 tumor cell lines = assay: Human Cancer Cell Line Panel (HCC panel) assay, whole panel; format: cell-based; settings: (−)-PLH content 24.1%, read-out: GI50 values, range over 38 cell lines
Procedure: The antitumor activity of PLH was evaluated by the Human Cancer Cell Line Panel (HCC panel) assay, see Yamori T., Jap. J Cancer Chemother., (1997), 24, 129-35. This HCC panel consists of 38 tumor cell lines including 7 lung cancer, 6 stomach, 6 colon, 5 ovary, 6 central nerve system, 5 breast, 2 kidney and 1 melanoma cell lines. Each tumor cell was seeded in 96-well tissue culture plates and incubated overnight. Various concentrations (5 doses; final 10^−4, 10^−5, 10^−6, 10^−7 and 10^−8 M) of PLH were added, and the cells were incubated for 48 hours. […] All mice were obtained from Japan SLC (Shizuoka, Japan), P388 leukemia cells were obtained from Dainippon Pharmaceuticals Inc. (Osaka, Japan), Lewis Lung Carcinoma from Riken Cell Bank (Tsukuba, Japan), and Colon 26 cells from the National Cancer Center, Japan (Tokyo, Japan).

[4] = system: A-549 cells derived from human lung cancer; assay: Cell proliferation inhibition, MTT (Example 2); format: cell-based; settings: A549, read-out: IC50 (concentration that inhibited cell proliferation 50%), A-549, 48 hours
Procedure: Into each well of a 96-well microtiter plate, 100 μl of A-549 cells derived from human lung cancer prepared to 10^5 cells/ml in a culture medium obtained by adding 10% bovine fetus serum to EMEM culture medium (Nissui Seiyaku Co., Ltd.) having antitumor effect against A-549 cells derived from human lung cancer was placed. Methanol solution of racemic NSCL-96F037 obtained as in Example 1 was added to the wells of the uppermost row, specimens were diluted by the half-log dilution method and added, and the plate was incubated in a carbon dioxide gas incubator at 37° C. for 48 hours. The result was added in lots of 10 μl with MTT reagent (3-(4,5-dimethyl-2-thiazole)-2,5-diphenyl-2H-tetra bromide) (1 mg/ml•PBS), followed by incubation in a carbon dioxide gas incubator at 37° C. for 6 hours. The culture medium was discarded and the crystal of produced in the cells was dissolved in 100 μl/well of dimethylsulfoxide. Absorption of 595 nm light was then measured with a microplate reader.

Row | SMILES | MIC (C. albicans 90028) [µg/mL] | MIC (C. albicans 10231) [µg/mL] | MIC (C. glabrata) [µg/mL] | microtubule structures by electron microscopy (Microtubule protein) | inhibition of tubulin polymerization compared with CLC [1] | IC50 [2] [µM] | polymerization of microtubule protein ([3]; 80 μM) | turbidity increase at high concentration ([3]; concentrations up to 200 μM) | IC50 ([3]; microtubule protein 1.5 mg/ml (Table 4), read-out: IC50 for Microtubule Protein Polymerization) [µM] | GI50 (38 tumor cell lines) [µM] | IC50 [4] [µg/mL]
1 | C=CC(C)(C)c1[nH]cnc1/C=C1\NC(=O)[C@H](Cc2ccccc2)NC1=O [(−)-phenylahistin] | > 70 | > 70 | > 70 | did not contain such structures | as effective as CLC | 0.35 | completely inhibited | did not increase the turbidity | 25 |  | 
2 | C=CC(C)(C)c1[nH]cnc1/C=C1\NC(=O)[C@H](Cc2ccccc2)NC1=O (racemic) [PLH, phenylahistin] |  |  |  |  |  |  |  |  |  | 0.23 to 40 | 0.3 (≈ 0.856 µM)
